Experimental data reported in ChEMBL document CHEMBL4382249, “1-Arylsulfonyl indoline-benzamides as a new antitubulin agents, with inhibition of histone deacetylase” (Eur J Med Chem, 2019).

Legend:
[1] = Toxicity in NOD/SCID mouse xenografted with human BJAB cells assessed as change in body weight at 50 mg/kg, iv daily for 5 days/week measured on day 25 post first dose; format: organism-based; settings: in vivo, 120 h
Histone deacetylase 4 = Histone deacetylase 4 (Homo sapiens, UniProt P56524); experiment: Inhibition of human HDAC4 using fluorogenic p53-derived peptide RHKK(Ac) as substrate by fluorescence assay
Histone deacetylase 4, sequence (P56524 whole entry): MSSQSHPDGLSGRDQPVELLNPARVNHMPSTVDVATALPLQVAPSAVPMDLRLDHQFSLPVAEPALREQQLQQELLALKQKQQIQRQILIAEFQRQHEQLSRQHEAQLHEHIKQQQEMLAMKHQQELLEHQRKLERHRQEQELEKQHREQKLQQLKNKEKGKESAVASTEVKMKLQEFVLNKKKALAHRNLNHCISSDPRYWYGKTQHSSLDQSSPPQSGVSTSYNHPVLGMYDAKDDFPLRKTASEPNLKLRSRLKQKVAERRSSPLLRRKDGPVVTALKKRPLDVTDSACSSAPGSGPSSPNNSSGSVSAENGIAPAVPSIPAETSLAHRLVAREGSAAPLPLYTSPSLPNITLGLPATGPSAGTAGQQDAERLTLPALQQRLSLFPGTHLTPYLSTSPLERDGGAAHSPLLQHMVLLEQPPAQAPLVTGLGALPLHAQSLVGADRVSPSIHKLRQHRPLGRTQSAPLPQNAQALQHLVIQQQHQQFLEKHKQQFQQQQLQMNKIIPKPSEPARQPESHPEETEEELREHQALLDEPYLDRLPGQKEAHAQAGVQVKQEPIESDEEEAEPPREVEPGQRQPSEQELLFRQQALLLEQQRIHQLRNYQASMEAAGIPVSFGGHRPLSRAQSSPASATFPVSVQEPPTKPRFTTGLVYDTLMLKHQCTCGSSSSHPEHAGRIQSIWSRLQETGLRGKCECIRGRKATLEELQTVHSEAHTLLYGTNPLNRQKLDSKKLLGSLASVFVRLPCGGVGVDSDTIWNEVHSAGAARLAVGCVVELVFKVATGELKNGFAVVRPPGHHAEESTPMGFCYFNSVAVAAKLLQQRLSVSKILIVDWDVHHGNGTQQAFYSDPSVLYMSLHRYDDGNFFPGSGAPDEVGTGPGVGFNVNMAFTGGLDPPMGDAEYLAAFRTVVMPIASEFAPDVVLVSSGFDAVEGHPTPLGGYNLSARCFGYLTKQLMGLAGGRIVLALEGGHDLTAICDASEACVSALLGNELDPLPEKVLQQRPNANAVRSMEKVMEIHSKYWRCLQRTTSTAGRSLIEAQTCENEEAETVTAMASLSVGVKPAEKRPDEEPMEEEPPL

[2] = Growth inhibition of human KB-VIN10 cells after 48 hrs by SRB assay; format: functional; settings: KB-VIN10, 48 h
[3] = Toxicity in nude Balb/c mouse xenografted with human A549 cells assessed as change in body weight at 50 mg/kg, ip daily measured up to 18 days; format: organism-based; settings: in vivo, 432 h
A549 = experiment: Growth inhibition of human A549 cells after 48 hrs by SRB assay; format: functional, cell-based; settings: A549, 48 h
BJAB = experiment: Growth inhibition of human BJAB cells assessed as cell viability at 5 nM after 48 hrs by MTT assay (reference value: 100%)
[4] = Growth inhibition of human KB-7d cells after 48 hrs by SRB assay; format: functional; settings: KB7D
Histone deacetylase 2 = Histone deacetylase 2 (Homo sapiens, UniProt Q92769); experiment: Inhibition of human HDAC2 using RHKKAc as substrate by fluorescence assay
Histone deacetylase 2, sequence (Q92769 whole entry): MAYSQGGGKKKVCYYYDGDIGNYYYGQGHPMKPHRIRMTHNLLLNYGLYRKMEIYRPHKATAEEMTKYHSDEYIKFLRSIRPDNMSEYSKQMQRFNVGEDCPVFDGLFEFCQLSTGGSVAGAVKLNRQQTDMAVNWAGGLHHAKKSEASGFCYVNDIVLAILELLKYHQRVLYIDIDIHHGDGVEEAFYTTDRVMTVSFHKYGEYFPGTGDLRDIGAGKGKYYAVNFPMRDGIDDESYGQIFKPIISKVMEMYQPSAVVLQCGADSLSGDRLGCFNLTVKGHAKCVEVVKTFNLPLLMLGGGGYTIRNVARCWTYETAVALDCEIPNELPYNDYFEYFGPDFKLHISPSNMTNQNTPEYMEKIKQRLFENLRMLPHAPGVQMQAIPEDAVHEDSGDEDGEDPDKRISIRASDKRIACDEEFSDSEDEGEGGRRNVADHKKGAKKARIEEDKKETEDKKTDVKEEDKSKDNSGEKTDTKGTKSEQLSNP

Histone deacetylase 7 = biological target: T1, Histone deacetylase 7 (Homo sapiens, UniProt Q8WUI4); experiment: Inhibition of human HDAC7 using fluorogenic p53 (379-382) peptide RHKK(Ac) as substrate by fluorescence assay
T1 sequence (Q8WUI4 whole entry): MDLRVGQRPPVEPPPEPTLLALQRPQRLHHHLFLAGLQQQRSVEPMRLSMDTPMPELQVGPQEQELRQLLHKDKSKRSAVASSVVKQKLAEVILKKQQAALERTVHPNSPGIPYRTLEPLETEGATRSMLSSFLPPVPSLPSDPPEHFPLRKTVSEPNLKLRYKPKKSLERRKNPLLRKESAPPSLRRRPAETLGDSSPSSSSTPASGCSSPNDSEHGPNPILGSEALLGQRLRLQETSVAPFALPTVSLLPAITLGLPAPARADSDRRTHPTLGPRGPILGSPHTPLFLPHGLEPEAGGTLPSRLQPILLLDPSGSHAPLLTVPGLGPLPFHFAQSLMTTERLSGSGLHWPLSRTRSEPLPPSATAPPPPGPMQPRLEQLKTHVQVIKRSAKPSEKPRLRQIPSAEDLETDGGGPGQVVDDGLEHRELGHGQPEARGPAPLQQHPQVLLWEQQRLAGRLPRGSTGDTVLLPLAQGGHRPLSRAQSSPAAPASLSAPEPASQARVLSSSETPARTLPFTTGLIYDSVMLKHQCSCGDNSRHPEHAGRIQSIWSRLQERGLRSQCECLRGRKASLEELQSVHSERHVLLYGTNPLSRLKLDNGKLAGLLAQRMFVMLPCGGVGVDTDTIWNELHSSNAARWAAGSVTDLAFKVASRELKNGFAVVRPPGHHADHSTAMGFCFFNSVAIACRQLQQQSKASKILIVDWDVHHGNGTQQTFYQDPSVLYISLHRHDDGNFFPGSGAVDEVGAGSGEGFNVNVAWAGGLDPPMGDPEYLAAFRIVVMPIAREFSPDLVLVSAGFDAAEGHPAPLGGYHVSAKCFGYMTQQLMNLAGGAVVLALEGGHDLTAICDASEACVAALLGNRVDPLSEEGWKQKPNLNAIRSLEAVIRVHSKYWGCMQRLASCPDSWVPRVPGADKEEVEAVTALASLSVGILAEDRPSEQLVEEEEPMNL

Histone deacetylase 9 = Histone deacetylase 9 (Homo sapiens, UniProt Q9UKV0); experiment: Inhibition of human HDAC9 using fluorogenic p53 (379-382) peptide RHKK(Ac) as substrate by fluorescence assay
Histone deacetylase 9, sequence (Q9UKV0 whole entry): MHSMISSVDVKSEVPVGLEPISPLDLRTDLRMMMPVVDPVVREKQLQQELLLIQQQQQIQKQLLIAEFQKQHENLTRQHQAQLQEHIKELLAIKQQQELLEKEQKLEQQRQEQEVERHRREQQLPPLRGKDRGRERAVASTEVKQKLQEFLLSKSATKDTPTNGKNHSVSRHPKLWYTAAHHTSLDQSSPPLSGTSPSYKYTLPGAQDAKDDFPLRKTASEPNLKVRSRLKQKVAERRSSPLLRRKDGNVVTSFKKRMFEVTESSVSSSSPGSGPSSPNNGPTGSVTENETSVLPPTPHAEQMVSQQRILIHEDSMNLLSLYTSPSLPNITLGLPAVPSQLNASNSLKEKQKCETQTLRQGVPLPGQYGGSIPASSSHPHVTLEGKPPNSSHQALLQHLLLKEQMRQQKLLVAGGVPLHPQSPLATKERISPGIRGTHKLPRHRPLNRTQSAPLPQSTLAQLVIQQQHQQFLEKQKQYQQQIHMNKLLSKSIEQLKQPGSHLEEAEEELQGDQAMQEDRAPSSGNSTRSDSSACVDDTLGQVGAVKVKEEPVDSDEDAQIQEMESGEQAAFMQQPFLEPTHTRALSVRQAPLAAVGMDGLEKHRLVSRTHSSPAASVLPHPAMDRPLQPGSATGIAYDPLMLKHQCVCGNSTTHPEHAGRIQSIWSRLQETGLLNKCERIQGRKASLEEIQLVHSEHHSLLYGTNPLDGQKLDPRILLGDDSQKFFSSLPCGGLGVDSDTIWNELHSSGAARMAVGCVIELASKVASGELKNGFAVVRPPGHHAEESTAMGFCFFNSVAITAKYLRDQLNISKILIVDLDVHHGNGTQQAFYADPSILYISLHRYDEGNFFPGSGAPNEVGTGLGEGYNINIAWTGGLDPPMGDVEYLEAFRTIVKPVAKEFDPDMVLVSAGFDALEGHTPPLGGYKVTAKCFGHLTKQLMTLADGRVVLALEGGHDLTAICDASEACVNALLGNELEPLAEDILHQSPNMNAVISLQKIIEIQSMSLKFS

Tubulin (Bos taurus) = Tubulin (Bos taurus) (UniProt Q6B856+Q862L2+Q862F3); settings: at 5 µM
Histone deacetylase 3 = Histone deacetylase 3 (Homo sapiens, UniProt O15379)
Histone deacetylase 3, sequence (O15379 whole entry): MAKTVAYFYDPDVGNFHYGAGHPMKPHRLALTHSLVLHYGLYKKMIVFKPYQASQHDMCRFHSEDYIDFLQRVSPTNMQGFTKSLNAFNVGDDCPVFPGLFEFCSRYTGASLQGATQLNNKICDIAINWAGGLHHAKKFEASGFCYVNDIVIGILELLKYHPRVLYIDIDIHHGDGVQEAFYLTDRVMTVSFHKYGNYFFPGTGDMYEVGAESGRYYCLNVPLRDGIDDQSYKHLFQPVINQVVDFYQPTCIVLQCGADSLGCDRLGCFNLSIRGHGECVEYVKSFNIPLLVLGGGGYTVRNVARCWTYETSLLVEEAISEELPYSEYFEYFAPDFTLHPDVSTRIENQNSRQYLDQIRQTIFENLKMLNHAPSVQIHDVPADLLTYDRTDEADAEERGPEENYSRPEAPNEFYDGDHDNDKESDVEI

[5] = biological target: T2, Protein deacetylase HDAC6 (Homo sapiens, UniProt Q9UBN7); experiment: Inhibition of human HDAC6 using RHKKAc as substrate by fluorescence assay
T2 sequence (Q9UBN7 whole entry): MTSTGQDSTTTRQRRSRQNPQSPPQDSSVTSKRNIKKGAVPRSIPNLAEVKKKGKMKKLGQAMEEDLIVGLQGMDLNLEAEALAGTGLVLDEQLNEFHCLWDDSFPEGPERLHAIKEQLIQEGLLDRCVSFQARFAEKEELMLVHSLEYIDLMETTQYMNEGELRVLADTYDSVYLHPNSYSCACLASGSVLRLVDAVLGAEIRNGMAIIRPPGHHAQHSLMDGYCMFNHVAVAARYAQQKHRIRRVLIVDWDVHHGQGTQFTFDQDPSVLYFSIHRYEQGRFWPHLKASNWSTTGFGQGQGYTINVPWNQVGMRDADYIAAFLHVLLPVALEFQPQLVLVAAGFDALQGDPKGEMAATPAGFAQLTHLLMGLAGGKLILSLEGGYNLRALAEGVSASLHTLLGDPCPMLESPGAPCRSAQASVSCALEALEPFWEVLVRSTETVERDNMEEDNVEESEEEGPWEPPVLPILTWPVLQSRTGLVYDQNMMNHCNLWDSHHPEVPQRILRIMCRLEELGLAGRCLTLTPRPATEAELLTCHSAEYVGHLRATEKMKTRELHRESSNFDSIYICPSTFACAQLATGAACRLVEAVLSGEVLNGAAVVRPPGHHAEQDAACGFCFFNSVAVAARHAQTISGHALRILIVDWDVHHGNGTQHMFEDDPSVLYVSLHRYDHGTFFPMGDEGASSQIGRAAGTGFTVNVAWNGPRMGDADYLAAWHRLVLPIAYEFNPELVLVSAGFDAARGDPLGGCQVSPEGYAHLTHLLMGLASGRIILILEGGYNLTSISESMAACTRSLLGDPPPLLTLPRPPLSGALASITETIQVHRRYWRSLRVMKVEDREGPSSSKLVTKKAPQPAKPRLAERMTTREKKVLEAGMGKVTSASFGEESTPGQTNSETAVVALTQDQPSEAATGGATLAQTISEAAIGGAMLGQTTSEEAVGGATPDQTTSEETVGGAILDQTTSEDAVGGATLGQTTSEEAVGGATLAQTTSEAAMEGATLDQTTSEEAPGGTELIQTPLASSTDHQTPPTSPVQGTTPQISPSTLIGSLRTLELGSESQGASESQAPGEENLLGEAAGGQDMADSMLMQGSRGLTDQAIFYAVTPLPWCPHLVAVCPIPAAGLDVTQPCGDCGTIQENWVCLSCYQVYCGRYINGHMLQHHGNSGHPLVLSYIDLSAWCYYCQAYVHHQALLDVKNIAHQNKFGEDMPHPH

IC50 (Histone deacetylase 4): Not Active | IC50 (A549): 79 nM | IC50 (Histone deacetylase 2): 662 nM | IC50 (Histone deacetylase 7): Not Active | IC50 (Histone deacetylase 9): Not Active | inhibition (Tubulin (Bos taurus)): 85.2% | IC50 (Histone deacetylase 3): Not Active | IC50 [5]: 314 nM
Structure (SMILES): COc1ccc(S(=O)(=O)N2CCc3cccc(NCc4ccc(C(=O)Nc5ccccc5N)cc4)c32)cc1
Activity [1]: Non-Toxic | IC50 [2]: 64.7 nM | Activity [3]: Non-Toxic | viability at 0.005 µM (BJAB): 71% | IC50 [4]: 46.6 nM
